Test results as given in US7723112B2, “Compositions and methods for treating and diagnosing cancer” (The Regents of the University of Michigan, priority 2005, dated 2010).
Where two headings read alike, the source gives them in different places.

System: UM-C4 tumor cells
Conditions: monitored four months
From the text: Mice were monitored for tumor growth over a period of four months and scored as either positive or negative for tumor growth such that Poisson statistics could be done to assess TG cell frequency among the input population.

O=P1(N(CCCl)CCCl)NCCCO1 (stereo not shown) [CPA, Cyclophosphamide]
mice developing tumors / mice injected (input of 56 bulk tumor cells from CPA-treated tumors): 4/8 | mice developing tumors / mice injected (input of 167 bulk tumor cells from CPA-treated tumors): 5/8 | mice developing tumors / mice injected (input of 500 bulk tumor cells from CPA-treated tumors): 9/9 | mice developing tumors (input of 1,500 bulk tumor cells from CPA-treated tumors): All eight
